# Measurements from patent publication US11787839B2, “Targeting α2δ-1-bound glutamate receptors for treating diseases and disorders” (Board of Regents, The University of Texas System, priority 2017, dated 2023).
# “Also recorded” adds a separate entry of the source.
# Legend:
# [1] = test system: surface GluN1, GluN2A, GluN2B; test: HEK293 cell membrane surface protein analysis (biotinylation); assay type: cell-based, rat; set-up: dose or concentration left out as unconfirmed; conditions: gabapentin for 60 min
# Method: Isolation and analysis of HEK293 cell membrane surface proteins: HEK293 cells were transfected with GluN1-1a, GluN2A/GluN2B and/or α2δ-1 after they had grown to 80-90% confluence in 75-cm^2 culture flasks. Cell surface biotinylation was performed using the Pierce Cell Surface Protein Isolation Kit (#89881, Thermo Fisher Scientific) according to the manufacturer's instructions. Briefly, cells were incubated with Sulfo-NHS—SS-biotin, which covalently binds to primary amino groups of extracellular proteins at 4° C. with constant rotation for 30 min. Excess biotin was quenched with quenching solution (Chaplan et al., 1997). The cells were washed, harvested by gentle scraping and lysed using the provided lysis buffer in the cocktail of protease and phosphatase inhibitors (#78440, Thermo Fisher Scientific) for 30 min at 4° C. The lysates were then centrifuged for 2 min at 10,000×g at 4° C., and the clear supernatants were added to NeutrAvidin agarose and incubated for 60 min at 25° C. with end-over-end mixing. The unbound (unbiotinylated) proteins, representing the intracellular fraction, were separated from the captured surface proteins by centrifugation of the column. […] Protein bands were quantified using Image Studio software (version 3.1, LI-COR Biosciences).
# cleaved caspase-3 = test: MCAO: cleaved caspase-3 protein levels in brain tissues; assay type: in vivo, mouse; conditions: MCAO mice; cortex, hippocampus, striatum
# Source text: (C and D) Original gel images (C, two pairs of samples) and quantification (D) of cleaved caspase-3 protein levels in the cerebral cortex, hippocampus, and striatum from MCAO mice treated with α2δ-1Tat peptide or control peptide (n=8 mice per group). Data are shown as means±SEM. *p<0.05 compared with the sham group. #p<0.05 compared with MCAO+vehicle group or control peptide group in the same brain region (repeated measures ANOVA for panel B; paired Student's t-test for panel D).
# morphine-treated rats = test: Opioid-induced hyperalgesia and analgesic tolerance in rats; conditions: co-treatment: gabapentin 100 mg/kg i.p. or peptide 1 μg intrathecal
# calpain = test: MCAO: spectrin BD level (calpain activation) in brain tissues; assay type: in vivo, mouse; conditions: MCAO WT mice; gabapentin posttreatment; peptide 200 μg/kg i.p. twice
# Source text: α2δ-1 and α2δ-1-bound NMDARs contribute to MCAO-induced calpain activation in brain tissues: Cerebral ischemia increases calpain activity, and calpain inhibition is neuroprotective against ischemia-induced brain injury. Spectrin is highly sensitive to proteolysis by calpain, and the stable αIIspectrin breakdown product (spectrin BD, 150 kDa) is commonly used as a biochemical assay for calpain activation.
# anesthetized rats = test: PVN microinjection and recording of RSNA and ABP (Ang II); assay type: in vivo, rat
# Method: PVN microinjection and recording of renal sympathetic nerve activity: Rats were anesthetized with a mixture of α-chloralose (60 mg/kg, i.p.) and urethane (800 mg/kg, i.p.). A retroperitoneal incision was made, and a branch of the left renal postganglionic sympathetic nerve was isolated under a surgical microscope. The renal sympathetic nerve was cut distally to ensure that afferent nerve activity was not recorded. The renal sympathetic nerve activity (RSNA), arterial blood pressure (ABP), and heart rate (HR) were recorded using a 1401-PLUS analog-to-digital converter and Spike2 system (Cambridge Electronic Design, Cambridge, UK). A microinjection pipette (tip diameter, 20-30 μm) was advanced into the PVN according to the following stereotactic coordinates: 1.6-2.0 mm caudal to the bregma, 0.5 mm lateral to the midline, and 7.0-7.5 mm ventral to the dura. The microinjection was done using a calibrated microinjection system (Nanoject II; Drummond Scientific) and monitored using a surgical microscope as described previously (Li and Pan, 2006, 2007; Qiao et al., 2017). Ang II (200 μmol/L, 50 nl) was microinjected into the PVN to observe the change in RSNA and ABP in the absence or presence of α2δ-1Tat peptide (100 μmol/L, 50 nl) or control peptide (100 μmol/L, 50 nl). The microinjections were separated by 10- to 15-min intervals to allow recovery of the response. To determine the location of the injection site and diffusion of the drugs in the PVN, 5% rhodamine-labeled fluorescent microspheres (0.04 μm; Molecular Probes) were included in the injection solution (Li and Pan, 2006, 2007; Qiao et al., 2017).
# [2] = molecular target: T1, NMDARs of spinal dorsal horn neurons (Rattus norvegicus, UniProt P35439+Q00959+Q00960); test: Electrophysiological recordings in rat spinal cord slices (SNL, Cacna2d1 vector); assay type: cell-based; conditions: SNL rats; peptides 1 mM for 60 min
# T1 construct: from tissue; host or cells: rat lumbar spinal cord slices (lamina II neurons) and synaptosomes made from them
# T1 sequence (Q00959 20-1464 limits assumed, other chains not shown): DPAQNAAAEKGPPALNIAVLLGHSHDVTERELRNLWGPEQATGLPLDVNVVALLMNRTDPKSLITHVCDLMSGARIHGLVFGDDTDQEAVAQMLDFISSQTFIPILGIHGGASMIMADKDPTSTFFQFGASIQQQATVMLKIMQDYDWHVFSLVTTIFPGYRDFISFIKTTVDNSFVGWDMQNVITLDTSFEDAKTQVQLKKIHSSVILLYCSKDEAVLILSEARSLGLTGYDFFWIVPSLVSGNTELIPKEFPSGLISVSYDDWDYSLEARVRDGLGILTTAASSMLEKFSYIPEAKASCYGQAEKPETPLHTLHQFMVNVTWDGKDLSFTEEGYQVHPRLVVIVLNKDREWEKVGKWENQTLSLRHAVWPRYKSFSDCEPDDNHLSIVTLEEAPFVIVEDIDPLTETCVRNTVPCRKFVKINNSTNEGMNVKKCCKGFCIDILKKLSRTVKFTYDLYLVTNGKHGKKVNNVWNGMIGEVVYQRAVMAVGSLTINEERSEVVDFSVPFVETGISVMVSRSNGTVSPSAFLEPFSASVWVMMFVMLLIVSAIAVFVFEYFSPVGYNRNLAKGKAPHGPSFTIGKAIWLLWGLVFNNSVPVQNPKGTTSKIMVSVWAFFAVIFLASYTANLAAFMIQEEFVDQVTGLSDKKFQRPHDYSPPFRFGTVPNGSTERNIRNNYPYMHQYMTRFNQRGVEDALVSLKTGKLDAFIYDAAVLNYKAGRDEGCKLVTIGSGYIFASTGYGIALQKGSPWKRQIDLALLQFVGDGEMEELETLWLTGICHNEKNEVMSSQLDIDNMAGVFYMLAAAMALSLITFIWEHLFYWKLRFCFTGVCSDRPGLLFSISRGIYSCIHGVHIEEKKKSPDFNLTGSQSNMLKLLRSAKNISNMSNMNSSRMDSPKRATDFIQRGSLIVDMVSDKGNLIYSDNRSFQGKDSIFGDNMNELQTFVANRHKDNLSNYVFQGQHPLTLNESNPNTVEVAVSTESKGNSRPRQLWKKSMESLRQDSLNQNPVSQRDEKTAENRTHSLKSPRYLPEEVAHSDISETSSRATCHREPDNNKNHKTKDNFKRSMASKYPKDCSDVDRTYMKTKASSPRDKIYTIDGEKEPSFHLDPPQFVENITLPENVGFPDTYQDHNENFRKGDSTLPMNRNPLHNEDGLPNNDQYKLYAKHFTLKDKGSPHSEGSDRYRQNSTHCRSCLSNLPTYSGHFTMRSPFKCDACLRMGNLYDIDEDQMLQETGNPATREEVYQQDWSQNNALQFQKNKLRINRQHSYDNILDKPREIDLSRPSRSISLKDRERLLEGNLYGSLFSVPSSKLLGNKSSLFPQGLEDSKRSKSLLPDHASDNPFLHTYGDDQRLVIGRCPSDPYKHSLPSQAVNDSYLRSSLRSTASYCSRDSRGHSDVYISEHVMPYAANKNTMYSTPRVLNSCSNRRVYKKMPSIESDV
# T1 sequence (Q00960 27-1482, other chains not shown): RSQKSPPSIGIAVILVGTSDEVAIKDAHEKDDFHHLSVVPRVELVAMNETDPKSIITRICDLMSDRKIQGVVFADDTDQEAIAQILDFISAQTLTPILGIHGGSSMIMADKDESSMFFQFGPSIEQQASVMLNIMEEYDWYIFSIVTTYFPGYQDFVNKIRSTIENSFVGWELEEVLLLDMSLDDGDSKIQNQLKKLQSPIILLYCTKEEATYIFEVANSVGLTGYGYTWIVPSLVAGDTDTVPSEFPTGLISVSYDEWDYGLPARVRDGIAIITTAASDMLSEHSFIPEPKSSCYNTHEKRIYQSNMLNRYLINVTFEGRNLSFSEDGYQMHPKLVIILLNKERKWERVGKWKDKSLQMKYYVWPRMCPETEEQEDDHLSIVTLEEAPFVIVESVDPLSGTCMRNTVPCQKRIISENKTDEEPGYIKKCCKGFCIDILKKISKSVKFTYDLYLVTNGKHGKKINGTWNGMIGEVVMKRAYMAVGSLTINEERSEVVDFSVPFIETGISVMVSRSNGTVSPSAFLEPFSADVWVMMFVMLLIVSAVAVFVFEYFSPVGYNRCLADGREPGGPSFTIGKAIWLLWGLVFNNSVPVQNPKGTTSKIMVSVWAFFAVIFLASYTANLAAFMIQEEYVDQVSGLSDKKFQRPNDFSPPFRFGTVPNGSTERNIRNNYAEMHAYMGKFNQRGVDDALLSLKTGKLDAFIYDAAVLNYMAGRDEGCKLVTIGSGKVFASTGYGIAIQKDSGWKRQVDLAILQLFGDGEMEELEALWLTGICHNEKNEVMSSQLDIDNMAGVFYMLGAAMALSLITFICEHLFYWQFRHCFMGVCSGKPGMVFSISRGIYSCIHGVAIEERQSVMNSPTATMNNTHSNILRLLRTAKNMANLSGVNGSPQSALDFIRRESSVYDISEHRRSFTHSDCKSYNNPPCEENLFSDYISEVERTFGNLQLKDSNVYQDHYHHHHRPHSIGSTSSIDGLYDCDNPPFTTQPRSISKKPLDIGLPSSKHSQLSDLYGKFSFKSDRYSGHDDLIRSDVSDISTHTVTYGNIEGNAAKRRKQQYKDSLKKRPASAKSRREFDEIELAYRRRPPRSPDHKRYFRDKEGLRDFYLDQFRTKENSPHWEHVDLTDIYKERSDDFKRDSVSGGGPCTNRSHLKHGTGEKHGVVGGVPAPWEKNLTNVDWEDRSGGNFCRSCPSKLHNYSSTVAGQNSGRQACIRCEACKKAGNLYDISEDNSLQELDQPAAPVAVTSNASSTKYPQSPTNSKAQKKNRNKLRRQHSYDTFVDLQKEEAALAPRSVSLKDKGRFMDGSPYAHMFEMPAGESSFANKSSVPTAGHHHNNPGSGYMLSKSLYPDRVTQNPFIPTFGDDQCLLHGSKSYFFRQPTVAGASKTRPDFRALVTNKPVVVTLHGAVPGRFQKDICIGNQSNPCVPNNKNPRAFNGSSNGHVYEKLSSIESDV
# Method: Electrophysiological recordings in spinal cord slices: Anesthesia was induced in rats or mice with isoflurane and removed the lumbar spinal cords via laminectomy. […] The spinal cord slices were placed in a glass bottom chamber and continuously perfused with Krebs solution at 5.0 ml/min at 34° C. maintained by an inline solution heater and a temperature controller.
# It becomes impossible to visualize neurons in other laminas in adult (>10-week-old) rodent spinal cords because of heavy laminar myelination. […] The tip of the puff pipette was placed 150 μm away from the recorded neuron.
# In some experiments, the attached dorsal root was electrically stimulated with a stimulating electrode (0.5 ms, 0.6 mA and 0.1 Hz) to evoke monosynaptic excitatory postsynaptic currents (EPSCs). The α-amino-3-hydroxy-5-methyl-4-isoxazolepropionic acid receptor (AMPAR)-mediated EPSCs were recorded at a holding potential of −60 mV in the presence of 10 μM bicuculline and 1 μM strychnine, whereas NMDAR-mediated EPSCs were recorded at +40 mV in the presence of 10 μM 6-cyano-7-nitroquinoxaline-2,3-dione, 10 μM bicuculline, and 1 μM strychnine. […] All signals were recorded using an amplifier (MultiClamp700B; Axon Instruments Inc., Union City, Calif.), filtered at 1-2 kHz, digitized at 10 kHz, and stored for off-line analysis. Final spinal cord slice recordings were performed 3-4 weeks after the nerve injury or sham surgery. In all electrophysiological experiments, 3-5 animals were used for each recording protocol, and only 1 neuron was recorded in each spinal cord slice.
# [3] = test system: rats treated with the Cacna2d1 vector; test: Withdrawal thresholds in rats overexpressing Cacna2d1 (lentiviral vector); assay type: in vivo, rat; conditions: for pain hypersensitivity induced by Cacna2d1 overexpression (tactile and pressure withdrawal thresholds): Cacna2d1 vector rats, AP5, peptide, gabapentin intrathecal, memantine systemic
Compound,"surface protein levels of GluN1, GluN2A and GluN2B increased by α2δ-1 coexpression [1]",MCAO-induced apoptotic signaling (cleaved caspase-3) (cleaved caspase-3),reduction in baseline withdrawal thresholds induced by chronic morphine injections (morphine-treated rats),reduction in the analgesic effect of morphine (morphine-treated rats),"spectrin BD level in cortex, hippocampus and striatum (calpain)","RSNA and mean ABP (anesthetized rats; Ang II 200 μmol/L, 50 nl into the PVN)",increased pre- and postsynaptic NMDAR activity of spinal dorsal horn neurons [2],"ABP and RSNA responses to Ang II after prior peptide microinjection into the PVN (anesthetized rats; peptides 100 μmol/L, 50 nl)",pain hypersensitivity induced by Cacna2d1 overexpression (tactile and pressure withdrawal thresholds) [3],pain hypersensitivity induced by Cacna2d1 overexpression (tactile and pressure withdrawal thresholds) ([3]; listed as a2d-1Tat peptide),"withdrawal thresholds in rats treated with the control vector ([3]; control vector rats, intrathecal injection)"
NCC1(CC(=O)O)CCCCC1 [gabapentin],normalized; also recorded: reversed,suppresses,completely blocked,substantially attenuated,significantly reduced,–,–,–,–,–,–
"Ang II: angiotensin II, obtained from Sigma (DRVYIHPF; Angiotensin-2; UniProt P01019 25-32, looked up)",–,–,–,–,–,significantly increased,–,–,–,–,–
"YGRKKRRQRRRVSGLNPSLWSIFGLQFILLWLVSGSRHYLW (a2d1 peptide) [α2δ-1Tat peptide, 30-amino-acid peptide mimicking the C-terminal domain of α2δ-1 fused to the cell-penetrating peptide Tat]",–,suppresses,completely blocked,substantially attenuated,significantly reduced,–,normalized,failed to significantly increase,attenuates,similarly reversed,had no effect
